Assay results as given in ChEMBL document CHEMBL1649315, “Extended-spectrum cephalosporinase in Acinetobacter baumannii” (Antimicrob Agents Chemother, 2010).
≈ marks a conversion by molar mass, not a printed value.

Assays:
[1] = system: CC1(C)S[C@@H]2[C@H](NC(=O)[C@H](N)c3ccccc3)C(=O)N2[C@H]1C(=O)O; test: (§1) Activity of Acinetobacter baumannii ADC-11 beta-lactamase
[2] = system: CC1(C)S[C@@H]2[C@H](NC(=O)Cc3ccccc3)C(=O)N2[C@H]1C(=O)O; test: as §1
[3] = system: CC(=O)OCC1=C(C(=O)O)N2C(=O)[C@@H](NC(=O)Cc3cccs3)[C@H]2SC1; test: as §1
[4] = system: CO/N=C(\C(=O)N[C@@H]1C(=O)N2C(C(=O)O)=C(COC(C)=O)CS[C@H]12)c1csc(N)n1; test: as §1
[5] = system: CCN1CCN(C(=O)N[C@@H](C(=O)N[C@@H]2C(=O)N3[C@@H]2SC(C)(C)[C@@H]3C(=O)O)c2ccccc2)C(=O)C1=O; test: as §1
[6] = system: CC(C)(O/N=C(\C(=O)N[C@@H]1C(=O)N2C(C(=O)[O-])=C(C[n+]3ccccc3)CS[C@H]12)c1csc(N)n1)C(=O)O; test: as §1
[7] = system: CO/N=C(\C(=O)N[C@@H]1C(=O)N2C(C(=O)[O-])=C(C[n+]3cccc4c3CCC4)CS[C@H]12)c1csc(N)n1; test: as §1
[8] = system: O=C(Cc1cccs1)N[C@@H]1C(=O)N2C(C(=O)[O-])=C(C[n+]3ccccc3)CS[C@H]12; test: as §1
[9] = system: CC1(C)S[C@@H]2[C@H](NC(=O)[C@H](N)c3ccccc3)C(=O)N2[C@H]1C(=O)O; test: (§2) Ratio of Kcat to Km for Acinetobacter baumannii ADC-11 beta-lactamase
[10] = system: CC1(C)S[C@@H]2[C@H](NC(=O)Cc3ccccc3)C(=O)N2[C@H]1C(=O)O; test: as §2
[11] = system: CCN1CCN(C(=O)N[C@@H](C(=O)N[C@@H]2C(=O)N3[C@@H]2SC(C)(C)[C@@H]3C(=O)O)c2ccccc2)C(=O)C1=O; test: as §2
[12] = system: CC(C)(O/N=C(\C(=O)N[C@@H]1C(=O)N2C(C(=O)[O-])=C(C[n+]3ccccc3)CS[C@H]12)c1csc(N)n1)C(=O)O; test: as §2
[13] = system: CO/N=C(\C(=O)N[C@@H]1C(=O)N2C(C(=O)[O-])=C(C[n+]3cccc4c3CCC4)CS[C@H]12)c1csc(N)n1; test: as §2
[14] = system: CO[C@@]1(NC(=O)Cc2cccs2)C(=O)N2C(C(=O)O)=C(COC(N)=O)CS[C@@H]21; test: Ratio of Kcat to Ki for Acinetobacter baumannii ADC-11 beta-lactamase
Acinetobacter baumannii [15] = test: Antimicrobial activity against Acinetobacter baumannii AYE expressing VEB-1 gene by Etest method; type: functional
Escherichia coli [16] = test: Antimicrobial activity against Escherichia coli TOP10 harboring pTOPO plasmid by Etest method in presence of Tazobactam; type: functional
Escherichia coli [17] = test: Antimicrobial activity against Escherichia coli TOP10 harboring pTOPO plasmid by Etest method; type: functional
Acinetobacter baumannii [18] = test: Ratio of Kcat to Km for Acinetobacter baumannii ADC-33 beta-lactamase to Kcat to Km for Acinetobacter baumannii ADC-11 beta-lactamase
Escherichia coli [19] = test: Antimicrobial activity against Escherichia coli TOP10 harboring pADC-33 plasmid by Etest method in presence of Tazobactam; type: functional
Escherichia coli [20] = test: Antimicrobial activity against Escherichia coli TOP10 harboring pADC-11 plasmid carrying entire blaAmpC gene with alanine residue deletion at 215 position and R210P substitution by Etest method in presence of Tazobactam; type: functional
Acinetobacter baumannii [21] = test: Antimicrobial activity against Acinetobacter baumannii AYE expressing VEB-1 gene by Etest method in presence of Tazobactam; type: functional
Escherichia coli [22] = test: Antimicrobial activity against Escherichia coli TOP10 harboring pADC-33 plasmid with entire blaAmpC gene with alanine residue deletion at 215 position by Etest method; type: functional
Escherichia coli [23] = test: Antimicrobial activity against Escherichia coli TOP10 harboring pADC-50 plasmid by Etest method; type: functional
Acinetobacter baumannii [24] = test: Antimicrobial activity against Acinetobacter baumannii CIP70.10 by Etest method; type: functional
Escherichia coli [25] = test: Antimicrobial activity against Escherichia coli TOP10 harboring pADC-33 plasmid carrying entire blaAmpC gene by Etest method in presence of Tazobactam; type: functional
Escherichia coli [26] = test: Antimicrobial activity against Escherichia coli TOP10 harboring pADC-33 plasmid with entire blaAmpC gene by Etest method; type: functional
Escherichia coli [27] = test: Antimicrobial activity against Escherichia coli TOP10 harboring pADC-11 plasmid with entire blaAmpC gene by Etest method; type: functional
Escherichia coli [28] = test: Antimicrobial activity against Escherichia coli TOP10 harboring pADC-33 plasmid by Etest method; type: functional
Escherichia coli [29] = test: Antimicrobial activity against Escherichia coli TOP10 harboring pADC-50 plasmid by Etest method in presence of Tazobactam; type: functional
Escherichia coli [30] = test: Antimicrobial activity against Escherichia coli TOP10 harboring pADC-11 plasmid by Etest method in presence of Tazobactam; type: functional
Acinetobacter baumannii [31] = test: Antimicrobial activity against Acinetobacter baumannii KI by Etest method; type: functional
Escherichia coli [32] = test: Antimicrobial activity against Escherichia coli TOP10 harboring pADC-11 plasmid by Etest method; type: functional
Escherichia coli [33] = test: Antimicrobial activity against Escherichia coli TOP10 harboring pADC-11 plasmid carrying entire blaAmpC gene with alanine residue insertion at 215 position and R210P substitution by Etest method; type: functional
Escherichia coli [34] = test: Antimicrobial activity against Escherichia coli TOP10 harboring pADC-11 plasmid carrying entire blaAmpC gene by Etest method in presence of Tazobactam; type: functional
Escherichia coli [35] = test: Antimicrobial activity against Escherichia coli TOP10 harboring pADC-11 plasmid carrying entire blaAmpC gene with alanine residue insertion at 215 position by Etest method; type: functional
Escherichia coli [36] = test: Antimicrobial activity against Escherichia coli TOP10 harboring pADC-11 plasmid carrying entire blaAmpC gene with alanine residue insertion at 215 position by Etest method in presence of Tazobactam; type: functional
Escherichia coli [37] = test: Antimicrobial activity against Escherichia coli TOP10 harboring pADC-33 plasmid carrying entire blaAmpC gene with alanine residue deletion at 215 position by Etest method in presence of Tazobactam; type: functional
Acinetobacter baumannii [38] = test: Antimicrobial activity against Acinetobacter baumannii CIP70.10 by Etest method in presence of Tazobactam; type: functional
Acinetobacter baumannii [39] = test: Antimicrobial activity against Acinetobacter baumannii KI by Etest method in presence of Tazobactam; type: functional
Escherichia coli [40] = test: Antimicrobial activity against Escherichia coli TOP10 harboring pADC-33 plasmid carrying entire blaAmpC gene with alanine residue deletion at 215 position and R210P substitution by Etest method in presence of Tazobactam; type: functional
Escherichia coli [41] = test: Antimicrobial activity against Escherichia coli TOP10 harboring pADC-33 plasmid carrying entire blaAmpC gene with alanine residue deletion at 215 position and R210P substitution by Etest method; type: functional

ADC-11 (Acinetobacter baumannii) (from UniProt D6NSM8)
Km [1]: 7 µM
kcat [1]: 5 s⁻¹
Km [2]: 12 µM
kcat [2]: 45 s⁻¹
Km [3]: 210 µM
kcat [3]: 550 s⁻¹
kcat [4]: 0.2 s⁻¹
kcat [5]: 5 s⁻¹
Km [6]: 10 µM
kcat [6]: 0.01 s⁻¹
Km [7]: 1700 µM
kcat [7]: 8 s⁻¹
kcat [8]: 600 s⁻¹
kcat/Km [9]: 1e+06 M⁻¹ s⁻¹
kcat/Km [10]: 4e+06 M⁻¹ s⁻¹
kcat/Km [11]: 200000 M⁻¹ s⁻¹
kcat/Km [12]: 1000 M⁻¹ s⁻¹
kcat/Km [13]: 4000 M⁻¹ s⁻¹
kcat/Km [14]: 3e+06 M⁻¹ s⁻¹

CCN1CCN(C(=O)N[C@@H](C(=O)N[C@@H]2C(=O)N3[C@@H]2SC(C)(C)[C@@H]3C(=O)O)c2ccccc2)C(=O)C1=O [PIPERACILLIN]
MIC (Acinetobacter baumannii [15]): > 256 µg/mL
MIC (Escherichia coli [16]): 1 µg/mL
MIC (Escherichia coli [17]): 1 µg/mL (≈ 1.93 µM)
kcat/Km (Acinetobacter baumannii [18]): 1.2e+06 M⁻¹ s⁻¹
MIC (Escherichia coli [19]): 32 µg/mL
MIC (Escherichia coli [20]): 256 µg/mL
MIC (Acinetobacter baumannii [21]): 128 µg/mL
MIC (Escherichia coli [22]): > 256 µg/mL
MIC (Escherichia coli [23]): 16 µg/mL (≈ 30.9 µM)
MIC (Acinetobacter baumannii [24]): 16 µg/mL (≈ 30.9 µM)
MIC (Escherichia coli [25]): > 256 µg/mL
MIC (Escherichia coli [26]): > 256 µg/mL
MIC (Escherichia coli [27]): > 256 µg/mL
MIC (Escherichia coli [28]): 32 µg/mL (≈ 61.8 µM)
MIC (Escherichia coli [29]): 16 µg/mL
MIC (Escherichia coli [30]): 8 µg/mL
MIC (Acinetobacter baumannii [31]): > 256 µg/mL
MIC (Escherichia coli [32]): 8 µg/mL (≈ 15.5 µM)
MIC (Escherichia coli [33]): > 256 µg/mL
MIC (Escherichia coli [34]): 128 µg/mL
MIC (Escherichia coli [35]): > 256 µg/mL
MIC (Escherichia coli [36]): 256 µg/mL
MIC (Escherichia coli [37]): 256 µg/mL
MIC (Acinetobacter baumannii [38]): 4 µg/mL
MIC (Acinetobacter baumannii [39]): 128 µg/mL
MIC (Escherichia coli [40]): 128 µg/mL
MIC (Escherichia coli [41]): > 256 µg/mL
